Measurements published in patent US10273263B2, “Pro-drug forming compounds” (priority 2013, dated 2019).

How the values were obtained:
[1] = oral biological activity: % uterine weight increase compared to vehicle; assay type: in vivo, rat; settings: Rattus norvegicus; oral, 30.0 μg
Description: Exemplary compounds were tested for: oral biological activity (Table 1); binding to human carbonic anhydrase II (hCA 2) (Table 2); and, for some compounds enzymatic saponification (Table 3).

[2] = test system: ovarectomized female rats; settings: compared with estradiol and ethinyl estradiol; cited from earlier work
[3] = biological target: human carbonic anhydrase II (hCA 2) (Homo sapiens, UniProt P00918); test: Human Carbonic Anhydrase II inhibition; assay type: biochemical; settings: read-out: hCAII (IC50 nM)
sulfatase = biological target: T1, sulfatase (Homo sapiens, UniProt P08842); settings: in women; cited from earlier work
T1 construct: host or cells: in vivo, women
T1 sequence (P08842 22-583): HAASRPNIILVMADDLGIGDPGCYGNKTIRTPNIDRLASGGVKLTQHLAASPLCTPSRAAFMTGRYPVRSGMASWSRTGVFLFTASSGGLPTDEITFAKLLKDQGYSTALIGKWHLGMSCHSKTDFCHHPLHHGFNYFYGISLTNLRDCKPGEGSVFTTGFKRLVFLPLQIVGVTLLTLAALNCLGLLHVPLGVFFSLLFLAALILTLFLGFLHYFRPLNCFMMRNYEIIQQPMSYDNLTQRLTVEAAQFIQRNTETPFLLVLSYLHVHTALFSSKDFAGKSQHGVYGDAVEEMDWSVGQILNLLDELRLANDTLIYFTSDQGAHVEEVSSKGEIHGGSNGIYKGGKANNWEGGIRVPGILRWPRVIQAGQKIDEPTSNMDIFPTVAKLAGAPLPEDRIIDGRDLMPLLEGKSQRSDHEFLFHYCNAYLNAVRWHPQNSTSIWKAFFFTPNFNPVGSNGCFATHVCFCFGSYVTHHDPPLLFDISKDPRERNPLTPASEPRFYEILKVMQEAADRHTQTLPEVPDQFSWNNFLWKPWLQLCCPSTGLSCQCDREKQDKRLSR

In the case of `C[C@]12CCC3c4ccc(OS(N)(=O)=O)cc4CCC3C1CC[C@@H]2O` (stereo partly drawn) [Compound J995, (13S,17S)-17-hydroxy-13-methyl-7,8,9,11,12,13,14,15,16,17-decahydro-6H-cyclopenta[a]phenanthren-3-yl sulfamate, reference compound], the change in vivo at 0.03 mg [1] is given as 203%, the “estrogenic activity after oral administration” value [2] is given as “higher estrogenic activity after oral administration than estradiol and ethinyl estradiol” and the IC50 [3] is given as 295 nM. The inhibition of sulfatase (sulfatase) was “acted as an inhibitor of sulfatase”.
